Measurements taken from patent publication US6844365B2, “Substances for use in treating psoriasis” (Laboratoire Medidom S.A., priority 2000, dated 2005).

Key:
IL-1 = IL-1 release from keratinocytes by ELISA; format: cell-based, human
Description: (§1) UV-B radiation was delivered with a battery of lamps (TL 20W/12RS UV-B Philips Medical) before and after treatment with diacerein.
(§2) In other experiments, UVB irradiation was delivered only after diacerein addition.
(§3) Before irradiation, the cells were washed once with PBS and irradiated in presence of PBS.
(§4) Controls were sham irradiated for identical periods as measured by International Light Research Radiometer (Newburyport, Mass.).
(§5) Quantitation of cytokine levels was performed by a quantitative two-site enzyme immunoassay according to manufacturer's instructions, using ELISA kits for IL-1, IL-6, IL-8 and TNF-α.
(§6) The sample concentration was determined by absorbance at 450 nm with the correction wavelength set at 540 nm.
IL-1 is constitutively expressed in human keratinocytes. IL-1 release was measured after the addition of increasing doses of diacerein.

[1] = cited from earlier work
[2] = system: patients with mild to moderate psoriatic arthritis; experiment: Clinical trial of Artrodar (diacerein) in psoriasis with mild to moderate psoriatic arthritis; format: in vivo, human; settings: for Ritchie articular index, hip sx: baseline Ritchie 2
Description: The aim of this study was to assess the efficacy and safety of diacerein in the treatment of psoriasis with mild to moderate psoratic arthritis.
The investigational drug, Artrodar® (Laboratoire Medidom S. A. (Geneva)), is a size 1 hard gelatin capsule.
Ten patients satisfying all the inclusion and exclusion criteria indicated below were tested.
Male or female patients over 18 years of age with • cutaneous involvement defined by the psoriasis area and severity index (PASI) (<15); • persistent negative latex test or ELISA for rheumatoid factors; • established diagnosis of mild to moderate severity psoriatic arthritis of at least 3 months duration characterized by oligoarthritis (<4 involved joints) and/or spondyloarthritis; • normal values for haematology and clinical chemistry values (ESR 1 h<30 mm, WBC with leucocyte differential count, RBC, Hb ([…]), platelets, creatinine, transaminases, alkaline phosphatase, bilirubin); • normal or drug-controlled blood pressure values; • failure to respond to topical (including emollients and coal tar) and phototherapy; • evidence of medically approved contraceptive methods in women of childbearing age; • written informed consent from each patient;
Exclusion criteria: • patient under 18 years of age; • positive rheumatoid factor (RF) or antinuclear antibodies (ANA) >1:80; • history of inflammatory bowel disease or evidence of another rheumatologic disorder; • ascertained individual sensitivity to diacerein or any of the components in the capsule; • chronic illness that, in the opinion of the Investigator, would limit successful participation in the trial; • treatment with slow acting drugs and/or corticosteroids during the month prior to study start; • patient who, in the judgement of the Investigator, […]. Treatment
Treatment was 2×50 mg capsules of Artrodar® (each capsule contains 50 mg diacerein) taken orally per day for 6 months.
One capsule was to be taken in the afternoon after lunch while the other was to be taken in the evening after dinner.
No slow acting disease modifying drugs for psoriatic arthritis or corticosteroids were allowed during one month prior to the start of the study and throughout the study.
Treatment with NSAIDs, analgesics and other drugs was kept constant during the study and the doses used were recorded every week.
The following were assessed at baseline and at regular intervals during the study: • The PASI index (Fredriksson and Petterson, 1978)^i for assessing cutaneous involvement. • Pain on activity (target joint) assessed using the VAS. • Ritchie articular index.
All adverse events either observed by the Investigator or reported by […] were recorded.

IL-8 = IL-8 release from keratinocytes by ELISA; format: cell-based, human
Description: as §1, §2, §3, §4, §5, §6
As TNF-α is a potent inducer of IL-8 in keratinocytes and plays an important role in the pathogenesis of psoriasis, the effect of diacerein on IL-8 was also evaluated after stimulating keratinocytes with TNF-α.

TNF-α = TNF-α release from keratinocytes by ELISA; format: cell-based, human; settings: 24 hours after UVB irradiation
Description: as §1, §2, §3, §4, §5, §6
As mentioned above, TNF-α is of great relevance in the pathomechanisms of psoriasis. Therefore, we wanted to evaluate the effect of diacerein on the release of this cytokine from human keratinocytes.

[3] = of 7 patients, 2×50 mg orally per day
[4] = patient one, 2nd visit, improved from Ritchie 1
[5] = patient three, 2nd visit, improved from Ritchie 2

CC(=O)Oc1cccc2c1C(=O)c1c(OC(C)=O)cc(C(=O)O)cc1C2=O [diacerein, 4,5-bis(acetyloxy)-9,10-dihydro-9,10-dioxo-2-anthracene carboxylic acid]
effect on UVB-induced increase in IL-1 release (IL-1; 24 hours after UVB irradiation): prevented this effect | dose down-regulating IL-1 release almost to baseline levels (IL-1; UVB-irradiated keratinocytes): 0.1 µM | effect of timing of administration on IL-1 release (IL-1; before versus after UVB irradiation): more powerful when administered before UVB irradiation | effect on constitutive levels of IL-1 (IL-1; normal conditions, no UVB): did not affect | carcinogenic potential ([1]; extensive toxicology studies): does not show carcinogenic potential | tolerability ([1]; prior use in osteoarthritis and rheumatoid arthritis, toxicology studies): well tolerated | adverse effect reported ([2]; all treated patients, caused drop-out): diarrhea in one patient | number of patients who responded after 1 month [2, 3]: 4 patients | number of patients who responded after 2 months [2, 3]: 2 patients | number of patients who responded after 3 months [2, 3]: 1 patients | psoriasis status ([2]; patient five, 2nd visit Jul. 14, 2000, 1 month treatment, baseline PASI 10.1): Psoriasis: status unchanged. | Pain on VAS ([2]; patient five, 2nd visit, baseline 60 mm): Pain on VAS = 50 mm | Ritchie articular index, knee pain (bilateral) ([2]; patient five, 2nd visit, baseline Ritchie 1): had knee pain (bilateral) (Ritchie 1). | Responder ([2]; patient five, treatment period only 1 month): No as | Responder ([2]; patient four): Yes | PASI score ([2]; patient four, 2nd visit Jul. 13, 2000, baseline 13.6): PASI score = 6.7 | Pain on VAS ([2]; patient four, 2nd visit, baseline 50 mm): Pain on VAS = 50 mm. | Ritchie articular index, shoulder sx ([2]; patient four, 2nd visit, baseline Ritchie 1): Shoulder sx: Unchanged | Ritchie articular index, hip sx ([2]; patient four, 2nd visit): Hip sx: Unchanged | Ritchie articular index, TMC dx ([2]; patient four, 2nd visit, improved from Ritchie 1): TMC dx: Improved from Ritchie 1 to 0 | PASI score ([2]; patient four, 3rd visit Aug. 30, 2000, baseline 13.6): PASI score = 2.2 | Pain on VAS ([2]; patient four, 3rd visit, baseline 50 mm): Pain on VAS = 50 mm. | Ritchie articular index, shoulder sx ([2]; patient four, 3rd visit, baseline Ritchie 1): Shoulder sx: Unchanged | Ritchie articular index, hip sx ([2]; patient four, 3rd visit): Hip sx: Unchanged | Ritchie articular index, TMC dx ([2]; patient four, 3rd visit, improved from Ritchie 1): TMC dx: Improved from Ritchie 1 to 0 | Responder ([2]; patient one (stopped after 4 weeks)): Yes | PASI score ([2]; patient one, 2nd visit Aug. 18, 2000, after stopping treatment in mid-July and mild return, baseline 4.8): PASI score = 2.4 | Ritchie articular index, TMC sx [2, 4]: TMC sx improved from Ritchie 1 to 0 | Ritchie articular index, shoulder sx [2, 4]: Shoulder sx: improved from Ritchie 1 to 0 | Ritchie articular index, tibiotarsal joint sx ([2]; patient one, 2nd visit, improved from Ritchie 2): Tibiotarsal joint sx: improved from Ritchie 2 to 0. | Responder ([2]; patient seven): Yes | PASI score ([2]; patient seven, 2nd visit Jun. 6, 2000, baseline 9.6): PASI score = 6.6 | Pain on the VAS ([2]; patient seven, 2nd visit, baseline 60 mm): Pain on the VAS = 50 mm. | PASI score ([2]; patient seven, 3rd visit Jul. 3, 2000, baseline 9.6): PASI = score 5.0 | Pain on the VAS ([2]; patient seven, 3rd visit, baseline 60 mm): Joint swelling decreased in all joints. Pain on the VAS = 40 mm. | PASI score ([2]; patient seven, 4th visit Aug. 18, 2000, baseline 9.6): PASI score = 0.9 | Responder ([2]; patient six): Yes | psoriasis status ([2]; patient six, 2nd visit, after 2 months treatment, baseline PASI 8.1): disappeared in June. | PASI score ([2]; patient six, 3rd visit Jul. 19, 2000 (psoriasis reappeared), baseline 8.1): PASI score = 3.9 | Ritchie articular index, right knee ([2]; patient six, 4th visit, baseline Ritchie 3): 0 | Pain on the VAS ([2]; patient six, right knee, 3rd visit, baseline 50 mm): VAS = 50 mm. | pain (VAS) ([2]; patient six, right knee, 4th visit Aug. 29, 2000, baseline 50 mm): 1 cm | Responder ([2]; patient three): Yes | PASI score ([2]; patient three, 2nd visit Jul. 20, 2000, baseline 6.9): PASI score = 6.9 | Ritchie articular index, wrist dx [2, 5]: Wrist dx: improved from Ritchie 2 to 1. | Ritchie articular index, wrist sx [2, 5]: Wrist sx: improved from Ritchie 2 to 0 | Ritchie articular index, wrist sx ([2]; patient three, 3rd visit): Wrist sx: Ritchie 0 | Morning stiffness ([2]; patient three, 3rd visit Aug. 24, 2000): Morning stiffness = 30 minutes. | PASI score ([2]; patient three, 3rd visit Aug. 24, 2000, baseline 6.9): PASI score = 3.9 | Ritchie articular index, wrist dx ([2]; patient three, 3rd visit, improved from Ritchie 1): Arthritis: Wrist dx: improved from Ritchie 1 to 0. | Responder ([2]; patient two (stopped after 1 month, diarrhea)): Yes | PASI score ([2]; patient two, 2nd visit Jul. 20, 2000, baseline 0.6): PASI score = 0.1 | Ritchie articular index, 2nd MCF dx ([2]; patient two, 2nd visit, printed as improved from Ritchie 1, baseline Ritchie 2): Arthritis: 2nd MCF, dx, improved from Ritchie 1 to Ritchie 0. | patients who responded to treatment (improvement on PASI score) ([2]; seven patients who took Diacerein one month or more, 2×50 mg capsules orally per day): 100% | doses with significant reduction of UVB-induced IL-8 levels (IL-8; 24 hours after UVB irradiation): 5 to 100 µM | effect of timing of addition on IL-8 release (IL-8; UVB-irradiated keratinocytes): more effective when given both before and after UVB irradiation | doses down-regulating TNF-α-induced IL-8 release (IL-8; keratinocytes stimulated with TNF-α, 24 hours): 50 to 200 µM | effect on IL-8 (IL-8; normal conditions, no stimulus): unaffected | doses down-regulating UVB-induced TNF-α release (TNF-α): 50 to 200 µM
